≈ marks a conversion by molar mass, not a printed value. Where “and” joins values, the source holds several entries; their conditions need not be identical. Equal entries are not always repeated. Where two headings read alike, the source gives them in different places.
Key:
[1] = test system: M. tuberculosis H37Rv; test: MIC against replicating M. tuberculosis H37Rv, microplate Alamar blue assay (MABA); type: cell-based
[2] = test system: Vero cells; test: Cytotoxicity assay in Vero cells (MTT); type: cell-based; conditions: for IC50: Chlorocebus sabaeus, Vero cells, 48 h, read-out: IC50 (Vero)
[3] = test system: M. tuberculosis (H37Rv) in infected mouse J774A.1 macrophages; type: cell-based
[4] = target: Mt-DprE1 (Mycobacterium tuberculosis, UniProt P9WJF1); type: biochemical, M. tuberculosis
[5] = Hepatocyte stability assay, mouse; conditions: male, mouse hepatocytes
[6] = Hepatocyte stability assay, human; conditions: human hepatocytes
[7] = Cytotoxicity assay in HepG2 cells (MTT); conditions: human
[8] = target: hERG K+ channel (Homo sapiens, UniProt Q12809); test: Inhibition of the hERG K+ channel, electrophysiology
[9] = Pharmacokinetic studies in Balb/c mice; conditions: male, Balb/c, mouse, in vivo
[10] = test system: M. tuberculosis H37Rv; test: In vivo efficacy in acute TB infection model in Balb/c mice; conditions: for log10 CFU/lung: oral, three weeks, INH 25 mg/kg
[11] = Mycobacterium tuberculosis, H37RV, against M. tuberculosis H37Rv, Tables 1-3, read-out: MIC
[12] = Mycobacterium tuberculosis, H37RV, supplementary CSV, same values as Tables 1-3, read-out: Minimal inhibit concentration
[13] = Mycobacterium tuberculosis, H37RV, against M. tuberculosis H37Rv, Tables 1-3
[14] = Mycobacterium tuberculosis, H37RV, Table 4, read-out: MIC H37Rv

Sequence of Mt-DprE1 (P9WJF1 whole entry, looked up): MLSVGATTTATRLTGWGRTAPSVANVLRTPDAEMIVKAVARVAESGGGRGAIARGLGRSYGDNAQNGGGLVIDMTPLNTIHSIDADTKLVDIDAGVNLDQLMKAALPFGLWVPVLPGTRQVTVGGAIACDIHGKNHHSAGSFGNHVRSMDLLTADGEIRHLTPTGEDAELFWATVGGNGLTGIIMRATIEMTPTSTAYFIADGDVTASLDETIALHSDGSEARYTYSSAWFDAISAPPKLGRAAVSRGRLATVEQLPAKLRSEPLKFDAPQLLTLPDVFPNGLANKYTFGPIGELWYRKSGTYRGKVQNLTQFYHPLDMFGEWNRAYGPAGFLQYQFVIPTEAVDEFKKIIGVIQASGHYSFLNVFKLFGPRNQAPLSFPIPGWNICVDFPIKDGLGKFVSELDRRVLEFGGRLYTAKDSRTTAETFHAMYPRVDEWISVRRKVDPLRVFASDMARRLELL
Sequence of hERG K+ channel (Q12809 whole entry): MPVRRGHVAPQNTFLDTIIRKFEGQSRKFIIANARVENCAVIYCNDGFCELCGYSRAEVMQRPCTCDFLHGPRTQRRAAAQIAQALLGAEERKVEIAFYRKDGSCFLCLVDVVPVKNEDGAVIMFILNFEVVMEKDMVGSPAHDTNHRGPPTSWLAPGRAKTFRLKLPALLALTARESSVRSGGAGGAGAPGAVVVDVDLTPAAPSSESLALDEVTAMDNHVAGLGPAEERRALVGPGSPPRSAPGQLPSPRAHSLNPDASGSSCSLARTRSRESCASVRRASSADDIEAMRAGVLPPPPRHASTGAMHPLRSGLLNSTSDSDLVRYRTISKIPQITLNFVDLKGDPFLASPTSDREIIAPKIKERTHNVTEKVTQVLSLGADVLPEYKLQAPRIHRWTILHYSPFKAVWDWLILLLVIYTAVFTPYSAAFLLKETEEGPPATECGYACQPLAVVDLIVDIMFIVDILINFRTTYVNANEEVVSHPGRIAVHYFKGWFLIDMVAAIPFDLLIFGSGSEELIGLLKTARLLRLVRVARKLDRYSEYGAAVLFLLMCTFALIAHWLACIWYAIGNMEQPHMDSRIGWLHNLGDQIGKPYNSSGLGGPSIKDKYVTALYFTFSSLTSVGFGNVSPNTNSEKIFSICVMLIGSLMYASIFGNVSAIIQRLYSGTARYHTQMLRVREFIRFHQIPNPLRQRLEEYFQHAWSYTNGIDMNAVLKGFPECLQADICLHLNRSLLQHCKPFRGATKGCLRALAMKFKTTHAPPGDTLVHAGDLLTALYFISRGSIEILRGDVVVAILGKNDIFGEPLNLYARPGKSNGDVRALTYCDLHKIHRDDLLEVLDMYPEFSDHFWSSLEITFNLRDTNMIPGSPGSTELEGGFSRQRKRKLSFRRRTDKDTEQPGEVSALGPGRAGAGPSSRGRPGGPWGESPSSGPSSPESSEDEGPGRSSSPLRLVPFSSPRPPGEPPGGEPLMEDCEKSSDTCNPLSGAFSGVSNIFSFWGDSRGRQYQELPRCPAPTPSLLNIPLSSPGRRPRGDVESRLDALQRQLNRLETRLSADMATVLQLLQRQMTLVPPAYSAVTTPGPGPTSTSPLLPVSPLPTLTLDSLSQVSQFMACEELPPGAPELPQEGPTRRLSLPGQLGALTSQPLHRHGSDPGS

CCOC(=O)NC(=O)c1ccsc1NC(=O)c1ccc(C(=O)N2CCC2)cc1 [Compound 23h, Ethyl (2-(4-(Azetidine-1-carbonyl)benzamido)thiophene-3-carbonyl)carbamate]
MIC [1, 11]: 0.84 µg/mL (≈ 2.09 µM)
MIC [1, 12]: 0.84 µg/mL (≈ 2.09 µM)
SI [2]: >76
IC50 [2]: > 64 µg/mL
melting point: 182 to 183 °C

CCOC(=O)NC(=O)c1ccsc1NC(=O)c1ccc(C(=O)N2CCCCC2)cc1 [Compound 23j, Ethyl (2-(4-(Piperidine-1-carbonyl)benzamido)thiophene-3-carbonyl)carbamate]
MIC [1, 11]: 0.02 µg/mL (≈ 0.0466 µM)
MIC [1, 12]: 0.02 µg/mL (≈ 0.0466 µM)
IC50 [2]: > 64 µg/mL
log10 CFU/macrophages [3]: 4.45 ± 0.03 log10 CFU and 4.54 ± 0.01 log10 CFU
Δlog10 CFU [3]: 1.07 log10 CFU and 0.98 log10 CFU
IC50 DprE1 [4]: 0.3 ± 0.1 µg/mL (≈ 0.698 µM)
half-life at 1 µM [5]: 56.4 min
remaining at 0.5 h, 1 µM [5]: 69.1%
half-life at 1 µM [6]: 50.8 min
remaining at 0.5 h, 1 µM [6]: 66.4%
IC50 at 48 h [7]: > 64 µg/mL
IC50 [8]: 23.7 µM

CCOC(=O)NC(=O)c1ccsc1NC(=O)c1ccc(C(=O)N2CCC(OC)CC2)cc1 [Compound 23m, Ethyl (2-(4-(4-Methoxypiperidine-1-carbonyl)benzamido)thiophene-3-carbonyl)carbamate]
MIC [1, 11]: 0.12 µg/mL (≈ 0.261 µM)
MIC [1, 12]: 0.12 µg/mL (≈ 0.261 µM)
SI [2]: >533
IC50 [2]: > 64 µg/mL
melting point: 160 to 161 °C

CCOC(=O)NC(=O)c1ccsc1NC(=O)c1ccc(C(=O)N2CCSCC2)cc1 [Compound 23p, Ethyl (2-(4-(Thiomorpholine-4-carbonyl)benzamido)thiophene-3-carbonyl)carbamate]
MIC [1, 11]: 0.33 µg/mL (≈ 0.737 µM)
MIC [1, 12]: 0.33 µg/mL (≈ 0.737 µM)
SI [2]: 159
IC50 [2]: 52.3 µg/mL (≈ 117 µM)
melting point: 178 to 179 °C

CCOC(=O)NC(=O)c1ccsc1NC(=O)c1ccc(C(=O)N2CCCCC2)cc1Cl [Compound 24c, Ethyl (2-(2-Chloro-4-(piperidine-1-carbonyl)benzamido)thiophene-3-carbonyl)carbamate]
MIC [1, 11]: 0.45 µg/mL (≈ 0.97 µM)
MIC [1, 12]: 0.45 µg/mL (≈ 0.97 µM)
SI [2]: >142
IC50 [2]: > 64 µg/mL
melting point: 59 to 60 °C

CCOC(=O)NC(=O)c1ccsc1NC(=O)c1ccc(C(=O)N2CCCCC2)cc1Br [Compound 24d, Ethyl (2-(2-Bromo-4-(piperidine-1-carbonyl)benzamido)thiophene-3-carbonyl)carbamate]
MIC [1, 11]: 0.49 µg/mL (≈ 0.964 µM)
MIC [1, 12]: 0.49 µg/mL (≈ 0.964 µM)
SI [2]: >131
IC50 [2]: > 64 µg/mL
melting point: 144 to 145 °C

CCOC(=O)NC(=O)c1ccsc1NC(=O)c1ccc(C(=O)N2CCCCC2)cc1[N+](=O)[O-] [Compound 24e, Ethyl (2-(2-Nitro-4-(piperidine-1-carbonyl)benzamido)thiophene-3-carbonyl)carbamate]
MIC [1, 11]: 1.86 µg/mL (≈ 3.92 µM)
MIC [1, 12]: 1.86 µg/mL (≈ 3.92 µM)
SI [2]: >34
IC50 [2]: > 64 µg/mL
melting point: 113 to 114 °C

CCOC(=O)NC(=O)c1ccsc1NC(=O)c1ccc(C(=O)N2CCCCC2)c(F)c1 [Compound 24f, Ethyl (2-(3-Fluoro-4-(piperidine-1-carbonyl)benzamido)thiophene-3-carbonyl)carbamate]
MIC H37Rv ([1]; Table 4): 0.020 µg/mL (≈ 0.0447 µM)
MIC [1, 13]: < 0.016 µg/mL
MIC [1, 12]: < 0.016 µg/mL
MIC [1, 14]: 0.02 to 0.12 µg/mL (≈ 0.0447 to 0.268 µM)
IC50 [2]: > 64 µg/mL
log10 CFU/macrophages [3]: 4.18 ± 0.04 log10 CFU and 4.41 ± 0.10 log10 CFU
IC50 DprE1 [4]: 0.2 ± 0.04 µg/mL (≈ 0.447 µM)
melting point: 186 to 187 °C
half-life at 1 µM [5]: 43.7 min
remaining at 0.5 h, 1 µM [5]: 62.1%
half-life at 1 µM [6]: 38.1 min
remaining at 0.5 h, 1 µM [6]: 58%
AUC(0-inf) at 24 h ([9]; iv, 5 mg/kg): 184 ng·h/mL
AUC(0-t) at 24 h ([9]; iv, 5 mg/kg): 183 ng·h/mL
Cmax at 24 h ([9]; iv, 5 mg/kg): 1300 ng/mL
MRT inf at 24 h ([9]; iv, 5 mg/kg): 7.8 min
clearance at 24 h ([9]; iv, 5 mg/kg): 479 mL/min/kg
half-life at 24 h ([9]; iv, 5 mg/kg): 7.8 min
AUC(0-inf) at 24 h ([9]; po, 50 mg/kg): 57.9 ng·h/mL
AUC(0-t) at 24 h ([9]; po, 50 mg/kg): 41.9 ng·h/mL
Cmax at 24 h ([9]; po, 50 mg/kg): 25.4 ng/mL
MRT inf at 24 h ([9]; po, 50 mg/kg): 126 min
Tmax at 24 h ([9]; po, 50 mg/kg): 60 min
bioavailability at 24 h ([9]; po, 50 mg/kg): 2.3%
half-life at 24 h ([9]; po, 50 mg/kg): 102 min
IC50 at 48 h [7]: > 64 µg/mL
IC50 [8]: > 30 µM

CCOC(=O)NC(=O)c1ccsc1NC(=O)c1coc(C(=O)N2CCCCC2)c1 [Compound 24k, Ethyl (2-(5-(Piperidine-1-carbonyl)furan-3-carboxamido)thiophene-3-carbonyl)carbamate]
MIC [1, 11]: 0.37 µg/mL (≈ 0.882 µM)
MIC [1, 12]: 0.37 µg/mL (≈ 0.882 µM)
MIC [1, 14]: 0.15 µg/mL (≈ 0.358 µM)
SI [2]: >173
IC50 [2]: > 64 µg/mL
melting point: 157 to 158 °C

COC(=O)NC(=O)c1ccsc1NC(=O)c1ccc(C(=O)N2CCCCC2)c(F)c1 [Compound 25b, Methyl (2-(3-Fluoro-4-(piperidine-1-carbonyl)benzamido)thiophene-3-carbonyl)carbamate]
MIC H37Rv ([1]; Table 4): 0.030 µg/mL (≈ 0.0692 µM)
MIC [1, 11]: 0.03 µg/mL (≈ 0.0692 µM)
MIC [1, 12]: 0.03 µg/mL (≈ 0.0692 µM)
MIC [1, 14]: 0.02 to 0.12 µg/mL (≈ 0.0461 to 0.277 µM)
IC50 [2]: > 64 µg/mL
log10 CFU/macrophages [3]: 4.59 ± 0.05 log10 CFU and 4.75 ± 0.21 log10 CFU
Δlog10 CFU [3]: 0.93 log10 CFU and 0.77 log10 CFU
IC50 DprE1 [4]: 0.4 ± 0.1 µg/mL (≈ 0.923 µM)
half-life at 1 µM [5]: 12.5 min
remaining at 0.5 h, 1 µM [5]: 19%
half-life at 1 µM [6]: 32.6 min
remaining at 0.5 h, 1 µM [6]: 52.8%
IC50 at 48 h [7]: > 64 µg/mL
IC50 [8]: > 30 µM

Cc1ccnc(NC(=O)c2ccsc2NC(=O)c2ccc(C(=O)N3CCCCC3)cc2)n1 [Compound 25j, N-(4-Methylpyrimidin-2-yl)-2-(4-(piperidine-1-carbonyl)benzamido)thiophene-3-carboxamide]
MIC [1, 13]: 1.94 µg/mL (≈ 4.32 µM)
MIC [1, 12]: 1.94 µg/mL (≈ 4.32 µM)
IC50 [2]: 51.9 µg/mL (≈ 115 µM)
melting point: 177 to 178 °C

Cc1ccnc(NC(=O)c2ccsc2NC(=O)c2ccc(C(=O)N3CCCCC3)c(F)c2)n1 [Compound 25k, 2-(3-Fluoro-4-(piperidine-1-carbonyl)benzamido)-N-(4-methylpyrimidin-2-yl)thiophene-3-carboxamide]
MIC [1, 11]: 0.47 µg/mL (≈ 1.01 µM)
MIC [1, 12]: 0.47 µg/mL (≈ 1.01 µM)
SI [2]: >136
IC50 [2]: > 64 µg/mL
melting point: 148 to 150 °C

O=C(Nc1sccc1C(=O)Nc1nccc(C(F)(F)F)n1)c1ccc(C(=O)N2CCCCC2)cc1 [Compound 25l, 2-(4-(Piperidine-1-carbonyl)benzamido)-N-(4-(trifluoromethyl)pyrimidin-2-yl)thiophene-3-carboxamide]
MIC [1, 11]: 0.2 µg/mL (≈ 0.397 µM)
MIC [1, 12]: 0.2 µg/mL (≈ 0.397 µM)
MIC [1, 14]: 0.2 µg/mL (≈ 0.397 µM)
MIC ([1]; against M. tuberculosis H37Rv, Tables 1-3): 0.20 µg/mL (≈ 0.397 µM)
IC50 [2]: > 64 µg/mL
log10 CFU/macrophages [3]: 4.54 ± 0.00 log10 CFU and 4.59 ± 0.03 log10 CFU
Δlog10 CFU [3]: 0.98 log10 CFU and 0.93 log10 CFU
IC50 DprE1 [4]: 0.4 ± 0.1 µg/mL (≈ 0.794 µM)
melting point: 182 to 183 °C

NNC(=O)c1ccncc1 [INH, isoniazid, reference compound]
MIC [1, 14]: 0.019 µg/mL (≈ 0.139 µM)
log10 CFU/lung ([10]; first column (batch with 25a; untreated 6.44), 25a 100 mg/kg): 1.76 ± 0.49 log10 CFU
Δlog10 CFU ([10]; in vivo): 4.68/5.17 log10 CFU
log10 CFU/lung ([10]; second column (another batch, with TCA1; untreated 7.10), TCA1 100 mg/kg): 1.93 ± 0.21 log10 CFU
